This is an account of results in ChEMBL document CHEMBL3525951, “Reevaluation of the microsomal metabolism of montelukast: major contribution by CYP2C8 at clinically relevant concentrations” (Drug Metab Dispos, 2011).

The target in data set [1] is T1, Cytochrome P450 2C8 (Homo sapiens, UniProt P10632).
T1 sequence (P10632 whole entry): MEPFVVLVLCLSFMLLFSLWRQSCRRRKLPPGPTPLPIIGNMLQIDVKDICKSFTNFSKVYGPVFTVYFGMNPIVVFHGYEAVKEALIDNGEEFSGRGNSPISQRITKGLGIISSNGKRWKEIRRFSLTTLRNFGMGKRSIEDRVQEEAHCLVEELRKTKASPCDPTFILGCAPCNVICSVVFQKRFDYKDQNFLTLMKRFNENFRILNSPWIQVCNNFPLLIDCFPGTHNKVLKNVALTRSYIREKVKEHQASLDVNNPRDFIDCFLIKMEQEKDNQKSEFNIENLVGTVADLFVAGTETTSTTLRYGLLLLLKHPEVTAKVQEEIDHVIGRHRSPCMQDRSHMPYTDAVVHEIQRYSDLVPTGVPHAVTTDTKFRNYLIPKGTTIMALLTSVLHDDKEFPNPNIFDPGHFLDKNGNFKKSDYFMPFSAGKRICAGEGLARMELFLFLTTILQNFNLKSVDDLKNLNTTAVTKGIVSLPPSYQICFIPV
The data set is described as follows: Activity of recombinant human CYP2C8 expressed in microsomes isolated from baculovirus infected insect cell assessed as enzyme-mediated compound formation treated with montelukast at 0.02 to 1 uM after 60 mins by LC-MS analysis. The format is ADME. The settings on record: 1 h.

The target of the next data set is Cytochrome P450 2C9 (Homo sapiens, UniProt P11712). Put plainly: Activity of recombinant human CYP2C9 expressed in microsomes isolated from baculovirus infected insect cell assessed as enzyme-mediated compound formation treated with montelukast at 0.02 to 0.1 uM after 12 mins by LC-MS analysis. The settings on record: 0.2 h. It is filed as ADME.
Data set [2] addresses T1, Cytochrome P450 2C8. The data set is described as follows: Activity of recombinant human CYP2C8 expressed in microsomes isolated from baculovirus infected insect cell assessed as enzyme-mediated 2-(2-((R)-3-((1-(carboxymethyl)cyclopropyl)methylthio)-3-(3-(2-(7-chloroquinolin-2-yl)vinyl)phenyl)propyl)phenyl)-2-hydroxypropanoic acid formation at 0.02 uM after 30 mins by LC-MS analysis. It is filed as ADME. The settings on record: 0.5 h.

For the next data set, the target named is T2, Cytochrome P450 1A2 (Homo sapiens, UniProt P05177).
T2 sequence (P05177 whole entry): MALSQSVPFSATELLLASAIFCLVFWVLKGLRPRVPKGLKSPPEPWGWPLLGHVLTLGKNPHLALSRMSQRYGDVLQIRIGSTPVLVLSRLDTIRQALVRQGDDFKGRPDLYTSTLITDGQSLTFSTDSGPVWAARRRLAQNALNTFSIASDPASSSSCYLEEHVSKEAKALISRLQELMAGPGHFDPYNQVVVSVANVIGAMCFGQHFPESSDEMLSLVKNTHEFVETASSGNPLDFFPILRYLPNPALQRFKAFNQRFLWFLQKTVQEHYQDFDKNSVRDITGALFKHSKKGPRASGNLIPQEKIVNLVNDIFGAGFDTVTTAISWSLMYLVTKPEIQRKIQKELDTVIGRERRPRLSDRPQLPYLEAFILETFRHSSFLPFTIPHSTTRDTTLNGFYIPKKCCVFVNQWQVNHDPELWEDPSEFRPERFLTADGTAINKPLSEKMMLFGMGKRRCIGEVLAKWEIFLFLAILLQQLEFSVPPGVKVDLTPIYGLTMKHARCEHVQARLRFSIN
Put plainly: Activity of recombinant human CYP1A2 expressed in microsomes isolated from baculovirus infected insect cell assessed as enzyme-mediated 2-(2-((R)-3-((1-(carboxymethyl)cyclopropyl)methylthio)-3-(3-(2-(7-chloroquinolin-2-yl)vinyl)phenyl)propyl)phenyl)-2-hydroxypropanoic acid formation at 1 uM after 30 mins by LC-MS analysis. It is filed as ADME. To be noted: 0.5 h.

Data set [3] relates to Liver microsome. The data set is described as follows: Drug metabolism in human liver microsomes assessed as 2-(1-(((1R)-1-(3-(2-(7-chloroquinolin-2-yl)vinyl)phenyl)-3-(2-(1,2-dihydroxypropan-2-yl)phenyl)propylthio)methyl)cyclopropyl)acetic acid formation at 0.02 to 0.4 uM preincubated for 3 mins followed by beta-NADPH addition by LC-MS analysis. The format is ADME. A general note: Liver microsomes are vesicles of endoplasmic reticulum, rich in cytochrome P450 enzymes.

Data set [4] in a line: Plasma protein binding in human. The format is ADME, cell-free.
Data set [5] has as its system Liver microsome. The data set is described as follows: Drug metabolism in human liver microsomes at 1 to 10 uM preincubated for 3 mins followed by beta-NADPH addition by LC-MS analysis. The format is ADME. The settings on record: TDE = time-dependent effect.
Data set [6] concerns Liver microsome. Put plainly: Drug metabolism in human liver microsomes assessed as 2-(1-(((1R)-1-(3-(2-(7-chloroquinolin-2-yl)vinyl)phenyl)-3-(2-(1,2-dihydroxypropan-2-yl)phenyl)propylthio)methyl)cyclopropyl)acetic acid formation at 0.05 uM after 15 mins by LC-MS analysis in presence of CYP2C8 inhibitor gemfibrozil 1-O-beta glucuronide and CYP2C9 inhibitor sulfaphenazole. The format is ADME. The settings on record: 0.25 h.

In data set [7] the target is T3, Cytochrome P450 3A4 (Homo sapiens, UniProt P08684). Put plainly: Activity of recombinant human CYP3A4 expressed in microsomes isolated from baculovirus infected insect cell assessed as enzyme-mediated (R)-2-(1-((1-(3-(2-(7-chloroquinolin-2-yl)vinyl)phenyl)-3-(4-hydroxy-2-(2-hydroxypropan-2-yl)phenyl)propylthio)methyl)cyclopropyl)acetic acid formation at 1 uM after 60 mins by LC-MS analysis. The settings on record: 1 h.

The target of a further data set is T4, Cytochrome P450 2A6 (Homo sapiens, UniProt P11509).
T4 sequence (P11509 whole entry): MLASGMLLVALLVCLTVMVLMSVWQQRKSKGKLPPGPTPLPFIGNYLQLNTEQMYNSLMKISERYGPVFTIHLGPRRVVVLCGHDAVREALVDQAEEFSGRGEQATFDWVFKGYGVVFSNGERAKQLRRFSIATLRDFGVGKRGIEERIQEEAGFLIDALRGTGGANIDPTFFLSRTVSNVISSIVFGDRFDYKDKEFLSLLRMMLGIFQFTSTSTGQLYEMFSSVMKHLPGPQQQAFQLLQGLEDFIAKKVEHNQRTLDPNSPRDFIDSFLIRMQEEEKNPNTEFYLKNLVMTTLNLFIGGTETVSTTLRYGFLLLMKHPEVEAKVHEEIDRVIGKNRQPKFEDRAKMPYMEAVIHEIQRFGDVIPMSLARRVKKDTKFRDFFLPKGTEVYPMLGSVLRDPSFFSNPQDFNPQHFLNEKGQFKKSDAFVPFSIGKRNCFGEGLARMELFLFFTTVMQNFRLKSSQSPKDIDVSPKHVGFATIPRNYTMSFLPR
Put plainly: Activity of recombinant human CYP2A6 expressed in microsomes isolated from baculovirus infected insect cell assessed as enzyme-mediated metabolite formation at 10 uM after 60 mins by LC-MS analysis. It is filed as ADME. The settings on record: 1 h.

Data set [8] addresses T3, Cytochrome P450 3A4. Put plainly: Activity of recombinant human CYP3A4 expressed in microsomes isolated from baculovirus infected insect cell assessed as enzyme-mediated 2-(1-(((1R)-1-(3-(2-(7-chloroquinolin-2-yl)vinyl)phenyl)-3-hydroxy-3-(2-(2-hydroxypropan-2-yl)phenyl)propylthio)methyl)cyclopropyl)acetic acid formation at 1 uM after 60 mins by LC-MS analysis. The settings on record: 1 h.

Data set [9] is described as follows: Cmax in human at 10 mg, po. The settings on record: in vivo. The format is ADME, organism-based. On the set-up: dose 10 mg, route oral.
A further data set has as its system Plasma. Put plainly: Unbound plasma concentration in human at 10 mg, po. It is filed as ADME, cell-free.

SMILES strings stand for the structures.

T3 sequence (P08684 whole entry): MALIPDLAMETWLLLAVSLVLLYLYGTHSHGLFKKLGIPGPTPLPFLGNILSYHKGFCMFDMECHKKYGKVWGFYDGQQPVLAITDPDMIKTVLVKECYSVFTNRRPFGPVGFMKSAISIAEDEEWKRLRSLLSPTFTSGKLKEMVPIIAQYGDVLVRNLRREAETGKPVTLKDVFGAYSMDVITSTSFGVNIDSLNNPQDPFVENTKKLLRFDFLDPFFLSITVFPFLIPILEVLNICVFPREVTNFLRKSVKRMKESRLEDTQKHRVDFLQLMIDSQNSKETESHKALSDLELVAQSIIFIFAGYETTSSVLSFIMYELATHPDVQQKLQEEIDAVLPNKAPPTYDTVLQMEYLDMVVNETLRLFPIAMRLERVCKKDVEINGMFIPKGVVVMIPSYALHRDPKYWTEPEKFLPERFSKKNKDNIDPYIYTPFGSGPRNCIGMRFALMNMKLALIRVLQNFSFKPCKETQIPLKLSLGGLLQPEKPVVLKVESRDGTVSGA
Chain of Cytochrome P450 2C9 (P11712 whole entry): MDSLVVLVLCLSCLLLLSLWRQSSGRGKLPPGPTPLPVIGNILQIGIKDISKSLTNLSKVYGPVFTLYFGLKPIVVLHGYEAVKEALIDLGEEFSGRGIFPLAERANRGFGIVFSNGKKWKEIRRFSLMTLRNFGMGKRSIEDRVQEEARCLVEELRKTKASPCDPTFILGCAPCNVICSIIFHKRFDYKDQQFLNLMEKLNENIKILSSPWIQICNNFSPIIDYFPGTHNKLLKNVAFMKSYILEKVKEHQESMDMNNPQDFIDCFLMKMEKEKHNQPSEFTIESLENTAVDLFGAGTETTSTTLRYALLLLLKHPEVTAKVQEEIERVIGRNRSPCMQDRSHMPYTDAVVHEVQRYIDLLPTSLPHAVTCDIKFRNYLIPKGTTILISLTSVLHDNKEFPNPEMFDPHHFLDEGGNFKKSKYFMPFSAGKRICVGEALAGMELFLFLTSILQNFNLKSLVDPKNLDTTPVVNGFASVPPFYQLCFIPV

On to `CC(O)(CO)c1ccccc1CC[C@@H](SCC1(CC(=O)O)CC1)c1cccc(/C=C/c2ccc3ccc(Cl)cc3n2)c1` (stereo partly drawn), for which the Drug metabolism entry on Cytochrome P450 2C8 [1] is listed as “metabolite_detected”; at Cytochrome P450 2C9, “metabolite_detected”; on Cytochrome P450 2C8 [2] it was “metabolite_detected”; on Cytochrome P450 1A2, “metabolite_not_detected”.
In the case of `CC(C)(O)c1ccccc1CC[C@@H](SCC1(CC(=O)[O-])CC1)c1cccc(/C=C/c2ccc3ccc(Cl)cc3n2)c1.[Na+]` [MONTELUKAST SODIUM], the Drug metabolism entry is “metabolite_detected” in the data set on Liver microsome [3]; “tde” in the data set with Liver microsome [5]; “metabolite_not_detected” with Liver microsome [6]; “metabolite_detected” on Cytochrome P450 3A4 [7]; “metabolite_detected” at Cytochrome P450 2A6; “metabolite_detected” on Cytochrome P450 3A4 [8]. Also, the fraction unbound in [4] is less than 0.01. Moreover, the Cmax in data set [9] stood at 500 ng/mL. In the data set on Plasma, the “Cp(f)” value was found to be 3 nM.

The fraction unbound is free concentration divided by total concentration. Read a high fraction unbound as weak binding. The term Cmax denotes the peak of the concentration-time curve.
